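Values below derive from 48-hour exposures of cells grown in 96-well plates, with endpoints linearly interpolated between the two concentrations bracketing the appropriate inhibition level. The concentration for full growth arrest is given as TGI.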
How the values were obtained:
Test in all cases: NCI anticancer screen, dose series, 48 h
[1] = system: 786-0 renal
[2] = system: A498 renal
[3] = system: A549 NSCLC
[4] = system: ACHN renal
[5] = system: CAKI-1 renal
[6] = system: CCRF-CEM leukemia
[7] = system: COLO 205 colon
[8] = system: DLD-1 colon
[9] = system: DMS 114 small cell lung
[10] = system: DMS 273 small cell lung
[11] = system: HCC-2998 colon
[12] = system: HCT-116 colon
[13] = system: HCT-15 colon
[14] = system: HL-60(TB) leukemia
[15] = system: HOP-18 NSCLC
[16] = system: HOP-62 NSCLC
[17] = system: HOP-92 NSCLC
[18] = system: HT29 colon
[19] = system: IGROV1 ovarian
[20] = system: K-562 leukemia
[21] = system: KM12 colon
[22] = system: KM20L2 colon
[23] = system: LOX IMVI melanoma
[24] = system: M14 melanoma
[25] = system: M19-MEL melanoma
[26] = system: MALME-3M melanoma
[27] = system: MOLT-4 leukemia
[28] = system: NCI-H226 lung
[29] = system: NCI-H23 lung
[30] = system: NCI-H460 lung
[31] = system: NCI-H522 lung
[32] = system: OVCAR-3 ovarian
[33] = system: OVCAR-4 ovarian
[34] = system: OVCAR-5 ovarian
[35] = system: OVCAR-8 ovarian
[36] = system: RPMI-8226 leukemia
[37] = system: SF-268 CNS
[38] = system: SF-295 CNS
[39] = system: SF-539 CNS
[40] = system: SK-MEL-2 melanoma
[41] = system: SK-MEL-28 melanoma
[42] = system: SK-MEL-5 melanoma
[43] = system: SK-OV-3 ovarian
[44] = system: SN12C renal
[45] = system: SNB-19 CNS
[46] = system: SNB-75 CNS
[47] = system: SNB-78 CNS
[48] = system: SR leukemia
[49] = system: SW-620 colon
[50] = system: TK-10 renal
[51] = system: U251 CNS
[52] = system: UACC-257 melanoma
[53] = system: UACC-62 melanoma
[54] = system: UO-31 renal
[55] = system: XF 498 CNS
[56] = system: EKVX NSCLC
[57] = system: RXF 393 renal
[58] = system: RXF-631 renal
[59] = system: LXFL 529 NSCLC

Nc1nc(SCCNC(=O)CCc2ccc(O)cc2)nc2c1ncn2C1OC(CO)C(O)C1O (configuration not stated)
TGI [1]: > 203 µM
TGI [2]: > 203 µM
TGI [3]: > 203 µM
TGI [4]: > 203 µM
TGI [5]: > 203 µM
TGI [6]: > 203 µM
TGI [7]: > 203 µM
TGI [8]: > 203 µM
TGI [9]: > 203 µM
TGI [10]: > 203 µM
TGI [11]: > 203 µM
TGI [12]: > 203 µM
TGI [13]: > 203 µM
TGI [14]: > 203 µM
TGI [15]: > 203 µM
TGI [16]: > 203 µM
TGI [17]: > 203 µM
TGI [18]: > 203 µM
TGI [19]: > 203 µM
TGI [20]: > 203 µM
TGI [21]: > 203 µM
TGI [22]: > 203 µM
TGI [23]: > 203 µM
TGI [24]: > 203 µM
TGI [25]: > 203 µM
TGI [26]: > 203 µM
TGI [27]: > 203 µM
TGI [28]: > 203 µM
TGI [29]: > 203 µM
TGI [30]: > 203 µM
TGI [31]: > 203 µM
TGI [32]: > 203 µM
TGI [33]: > 203 µM
TGI [34]: > 203 µM
TGI [35]: > 203 µM
TGI [36]: > 203 µM
TGI [37]: > 203 µM
TGI [38]: > 203 µM
TGI [39]: > 203 µM
TGI [40]: > 203 µM
TGI [41]: > 203 µM
TGI [42]: > 203 µM
TGI [43]: > 203 µM
TGI [44]: > 203 µM
TGI [45]: > 203 µM
TGI [46]: > 203 µM
TGI [47]: > 203 µM
TGI [48]: > 203 µM
TGI [49]: > 203 µM
TGI [50]: > 203 µM
TGI [51]: > 203 µM
TGI [52]: > 203 µM
TGI [53]: > 203 µM
TGI [54]: > 203 µM
TGI [55]: > 203 µM

Clc1ccc(SCCSCCCCCCCCCCSCCSc2ccc(Cl)cc2)cc1
TGI [1]: > 100 µM
TGI [2]: > 100 µM
TGI [3]: > 100 µM
TGI [4]: > 100 µM
TGI [5]: > 100 µM
TGI [6]: > 100 µM
TGI [7]: > 100 µM
TGI [8]: > 100 µM
TGI [9]: > 100 µM
TGI [10]: > 100 µM
TGI [56]: > 100 µM
TGI [11]: > 100 µM
TGI [13]: > 100 µM
TGI [14]: > 100 µM
TGI [15]: > 100 µM
TGI [16]: > 100 µM
TGI [17]: > 100 µM
TGI [18]: > 100 µM
TGI [19]: > 100 µM
TGI [20]: > 100 µM
TGI [21]: > 100 µM
TGI [22]: > 100 µM
TGI [23]: > 100 µM
TGI [26]: > 100 µM
TGI [27]: > 100 µM
TGI [28]: > 100 µM
TGI [29]: > 100 µM
TGI [30]: > 100 µM
TGI [31]: > 100 µM
TGI [32]: > 100 µM
TGI [34]: > 100 µM
TGI [35]: > 100 µM
TGI [36]: > 100 µM
TGI [57]: > 100 µM
TGI [58]: > 100 µM
TGI [37]: > 100 µM
TGI [38]: > 100 µM
TGI [39]: > 100 µM
TGI [40]: > 100 µM
TGI [41]: > 100 µM
TGI [42]: > 100 µM
TGI [43]: > 100 µM
TGI [44]: > 100 µM
TGI [45]: > 100 µM
TGI [46]: > 100 µM
TGI [47]: > 100 µM
TGI [49]: > 100 µM
TGI [50]: > 100 µM
TGI [51]: > 100 µM
TGI [52]: > 100 µM
TGI [53]: > 100 µM
TGI [54]: > 100 µM

Cc1cc2c(=O)n(-c3ccc(F)cc3)c(C)nc2c(C(=O)O)c1C
TGI [1]: > 100 µM
TGI [2]: > 100 µM
TGI [3]: > 100 µM
TGI [4]: > 100 µM
TGI [5]: > 100 µM
TGI [6]: > 100 µM
TGI [7]: > 100 µM
TGI [8]: > 100 µM
TGI [9]: > 100 µM
TGI [10]: > 100 µM
TGI [56]: > 100 µM
TGI [11]: > 100 µM
TGI [12]: > 100 µM
TGI [13]: > 100 µM
TGI [14]: > 100 µM
TGI [15]: > 100 µM
TGI [16]: > 100 µM
TGI [17]: > 100 µM
TGI [18]: > 100 µM
TGI [19]: > 100 µM
TGI [20]: > 100 µM
TGI [21]: > 100 µM
TGI [22]: > 100 µM
TGI [23]: > 100 µM
TGI [59]: > 100 µM
TGI [24]: > 100 µM
TGI [25]: > 100 µM
TGI [26]: > 100 µM
TGI [27]: > 100 µM
TGI [28]: > 100 µM
TGI [29]: > 100 µM
TGI [30]: > 100 µM
TGI [32]: > 100 µM
TGI [33]: > 100 µM
TGI [34]: > 100 µM
TGI [35]: > 100 µM
TGI [36]: > 100 µM
TGI [57]: > 100 µM
TGI [37]: > 100 µM
TGI [38]: > 100 µM
TGI [39]: > 100 µM
TGI [40]: > 100 µM
TGI [41]: > 100 µM
TGI [42]: > 100 µM
TGI [43]: > 100 µM
TGI [44]: > 100 µM
TGI [46]: > 100 µM
TGI [47]: > 100 µM
TGI [48]: > 100 µM
TGI [49]: > 100 µM
TGI [50]: > 100 µM
TGI [51]: > 100 µM
TGI [52]: > 100 µM
TGI [53]: > 100 µM
TGI [54]: > 100 µM
